# Data reported in patent US20060281791A1, “Methods of increasing proliferation of adult mammalian cardiomyocytes through p38 map kinase inhibition” (CHILDREN'S MEDICAL CENTER CORPORATION, priority 2005, published 2006).
# Tested on: neonatal (P2) cardiomyocytes
# Assay: Induction of DNA synthesis (BrdU incorporation) in neonatal cardiomyocytes
# Format: cell-based, rat
# Settings: BrdU labeling period 24 to 72 hours; harvested after 72 hours; optimal concentration of stimulus
# Protocol: Animal experiments were performed in accordance with guidelines of Children's Hospital, Boston and UCLA. Ventricular cardiomyocytes from fetal (E19), 2-day-old (P2) and adult (250-350 g) Wistar rats (Charles River) were isolated as described with minor modifications (Engel et al. 1999; Engel et al. 2003). After digestion of fetal or neonatal hearts (0.14 mg/ml collagenase II (Invitrogen), 0.55 mg/ml pancreatin (Sigma)) cells were cultured in DMEM/F12 (GIBCO) containing 3 mM Na-pyruvate, 0.2% BSA, 0.1 mM ascorbic acid (Sigma), 0.5% Insulin-Transferrin-Selenium (100×), penicillin (100 U/ml), streptomycin (100 μg/ml), and 2 mM L-glutamine (GIBCO). Adult cardiomyocytes were cultured for 1 day in standard medium (DMEM, 25 mM Hepes, 5 mM taurine, 5 mM creatine, 2 mM L-carnitine (Sigma), 20 U/ml insulin (GIBCO), 0.2% BSA, penicillin (100 U/ml), and streptomycin (100 μg/ml)). Cells were stimulated in culture medium without BSA containing 2 mM L-glutamine. Neonatal and adult cardiomyocytes were initially cultured for 48 h in the presence of 20 μM cytosine β-D-arabinofuranoside (araC, Sigma) and 5% horse serum before stimulation to prevent proliferation of non-myocytes. Adult cardiomyocytes were incubated another 3 days with araC during stimulation. Neonatal cardiomyocytes were stimulated every day with growth factors for BrdU and H3P analyses (FGF1 and NRG-1-1β at 50 ng/ml, IL-1β at 100 ng/ml, R&D Systems, all diluted in 0.1% BSA/PBS). SB203580 and LY294002 (Calbiochem) was added every day. Adult cardiomyocytes were stimulated with fresh medium and SB203580 every 3 days.
# Staining was performed as described (Supplemental Table S3) (Engel et al. 1999; Engel et al. 2003). Immune complexes were detected with ALEXA 350, ALEXA 488 or ALEXA 594-conjugated secondary antibodies (1:200, Molecular Probes). DNA was visualised with DAPI (4′,6′-diamidino-2-phenylindole, 0.5 μg/ml, Sigma). For BrdU, cells were cultured in 30 μM BrdU, incubated after permeabilization for 90 min in 2N HCl/1% triton X-100 and washed 3 times in PBS.
# Eighteen to 40 hearts of 3 different litters were used for quantitative analyses of maximal areas. For immunofluorescence analyses 1,500 fetal or neonatal cardiomyocytes were counted. For adult cardiomyocyte analyses in vitro the following number of cells were counted: 500-2,000 for BrdU or Ki67, 9,000-25,000 for H3P, and 12,000-45,000 for aurora B. For in vivo MKK3bE and p38α knockout experiments 2 different litters were used. We counted 1,500-2,000 cells in each apex, left and right ventricle per heart. For adult experiments we analyzed 2 p38α^Δ/Δ and 2 p38^lox/lox hearts (24 sections each). Statistical significance was determined using Student's t test.
# Several growth factors have a limited capacity to induce DNA synthesis in neonatal cardiomyocytes, including FGF1 (Pasumarthi and Field 2002). We screened 45 extracellular factors at two different concentrations for their ability to induce BrdU incorporation in neonatal (P2) cardiomyocytes. […] We confirmed previous studies showing that FGF1, IL-1β, and NRG-1-β1 are potent growth factors for neonatal cardiomyocytes (Supplemental Table S2) (Pasumarthi and Field 2002 Circ Res 90: 1044-54).
# Inhibition of p38 activity by SB203580 increased BrdU incorporation 2.8-fold in neonatal cardiomyocytes stimulated with FGF1 (p<0.01). Similar results were obtained after stimulation with IL-1β and NRG-1-β1. Thus, inhibition of p38 activity augments growth factor-mediated DNA synthesis in neonatal cardiomyocytes.
substance,measurement,value
FGF1: growth factor FGF1 (R&D Systems),% of BrdU positive neonatal cardiomyoctes,61.8 ± 2.1%
